Measurements as given in the NIST ThermoML archive (doi:10.1021/acs.jced.9b00415).
± gives the expanded uncertainty stated by the source.

Experiment: xn = mol fraction of the nth substance listed
Details: 102 kPa, Liquid; for viscosity: Concentric cylinders viscometry; for mass density: Vibrating tube method

## CCCCn1cc[n+](C)c1.O=[N+]([O-])[O-] [1-butyl-3-methylimidazolium nitrate] + CCCCn1cc[n+](C)c1.[Cl-]
298.15 K, x1 = 0.8
  viscosity: 373.6 ± 40 mPa·s
  mass density: 1139.9 ± 2.9 kg/m3
303.15 K, x1 = 0.8
  viscosity: 266.4 ± 28 mPa·s
  mass density: 1136.8 ± 2.9 kg/m3
308.15 K, x1 = 0.8
  viscosity: 194.9 ± 21 mPa·s
  mass density: 1133.7 ± 2.9 kg/m3
313.15 K, x1 = 0.5
  viscosity: 365.1 ± 39 mPa·s
  mass density: 1109.6 ± 2.9 kg/m3
313.15 K, x1 = 0.6
  viscosity: 275.4 ± 29 mPa·s
  mass density: 1116.9 ± 2.9 kg/m3
313.15 K, x1 = 0.8
  viscosity: 146 ± 16 mPa·s
  mass density: 1130.6 ± 2.9 kg/m3
318.15 K, x1 = 0.2
  viscosity: 721.3 ± 77 mPa·s
318.15 K, x1 = 0.5
  viscosity: 262.7 ± 28 mPa·s
  mass density: 1106.6 ± 2.9 kg/m3
318.15 K, x1 = 0.6
  viscosity: 201.5 ± 21 mPa·s
  mass density: 1113.9 ± 2.9 kg/m3
318.15 K, x1 = 0.8
  viscosity: 111.7 ± 12 mPa·s
  mass density: 1127.6 ± 2.9 kg/m3
323.15 K, x1 = 0.2
  viscosity: 495.6 ± 53 mPa·s
323.15 K, x1 = 0.4
  viscosity: 259.8 ± 28 mPa·s
  mass density: 1097.9 ± 2.9 kg/m3
323.15 K, x1 = 0.5
  viscosity: 193.7 ± 20 mPa·s
  mass density: 1103.7 ± 2.9 kg/m3
323.15 K, x1 = 0.6
  viscosity: 150.8 ± 16 mPa·s
  mass density: 1110.9 ± 2.9 kg/m3
323.15 K, x1 = 0.8
  viscosity: 87.1 ± 9.1 mPa·s
  mass density: 1124.6 ± 2.9 kg/m3
328.15 K, x1 = 0.2
  viscosity: 349.9 ± 37 mPa·s
  mass density: 1080.2 ± 2.9 kg/m3
328.15 K, x1 = 0.4
  viscosity: 191.3 ± 20 mPa·s
  mass density: 1095 ± 2.9 kg/m3
328.15 K, x1 = 0.5
  viscosity: 145.9 ± 15 mPa·s
  mass density: 1100.8 ± 2.9 kg/m3
328.15 K, x1 = 0.6
  viscosity: 115.2 ± 12 mPa·s
  mass density: 1107.9 ± 2.9 kg/m3
328.15 K, x1 = 0.8
  viscosity: 69.09 ± 7.2 mPa·s
  mass density: 1121.6 ± 2.8 kg/m3
333.15 K, x1 = 0.1
  viscosity: 378.4 ± 41 mPa·s
  mass density: 1070.3 ± 2.9 kg/m3
333.15 K, x1 = 0.2
  viscosity: 253.4 ± 27 mPa·s
  mass density: 1077.3 ± 2.9 kg/m3
333.15 K, x1 = 0.4
  viscosity: 144 ± 15 mPa·s
  mass density: 1092 ± 2.9 kg/m3
333.15 K, x1 = 0.5
  viscosity: 112 ± 12 mPa·s
  mass density: 1097.9 ± 2.9 kg/m3
333.15 K, x1 = 0.6
  viscosity: 89.66 ± 9.2 mPa·s
  mass density: 1104.9 ± 2.9 kg/m3
333.15 K, x1 = 0.8
  viscosity: 55.68 ± 5.8 mPa·s
  mass density: 1118.6 ± 2.8 kg/m3
338.15 K, x1 = 0.1
  viscosity: 271.8 ± 29 mPa·s
  mass density: 1067.5 ± 2.9 kg/m3
338.15 K, x1 = 0.2
  viscosity: 187.6 ± 20 mPa·s
  mass density: 1074.4 ± 2.9 kg/m3
338.15 K, x1 = 0.4
  viscosity: 110.6 ± 12 mPa·s
  mass density: 1089.1 ± 2.9 kg/m3
338.15 K, x1 = 0.5
  viscosity: 87.65 ± 9 mPa·s
  mass density: 1095 ± 2.9 kg/m3
338.15 K, x1 = 0.6
  viscosity: 71.02 ± 7.3 mPa·s
  mass density: 1101.9 ± 2.8 kg/m3
338.15 K, x1 = 0.8
  viscosity: 45.53 ± 4.7 mPa·s
  mass density: 1115.7 ± 2.8 kg/m3
343.15 K, x1 = 0.1
  viscosity: 199.9 ± 21 mPa·s
  mass density: 1064.8 ± 2.9 kg/m3
343.15 K, x1 = 0.2
  viscosity: 141.9 ± 15 mPa·s
  mass density: 1071.6 ± 2.9 kg/m3
343.15 K, x1 = 0.4
  viscosity: 86.47 ± 9 mPa·s
  mass density: 1086.2 ± 2.9 kg/m3
343.15 K, x1 = 0.5
  viscosity: 69.7 ± 7.1 mPa·s
  mass density: 1092.1 ± 2.8 kg/m3
343.15 K, x1 = 0.6
  viscosity: 57.14 ± 5.8 mPa·s
  mass density: 1099 ± 2.8 kg/m3
343.15 K, x1 = 0.8
  viscosity: 37.72 ± 3.9 mPa·s
  mass density: 1112.7 ± 2.8 kg/m3
348.15 K, x1 = 0.1
  viscosity: 150.1 ± 16 mPa·s
  mass density: 1062.1 ± 2.9 kg/m3
348.15 K, x1 = 0.2
  viscosity: 109.3 ± 11 mPa·s
  mass density: 1068.8 ± 2.9 kg/m3
348.15 K, x1 = 0.4
  viscosity: 68.73 ± 7.1 mPa·s
  mass density: 1083.3 ± 2.9 kg/m3
348.15 K, x1 = 0.5
  viscosity: 56.25 ± 5.8 mPa·s
  mass density: 1089.2 ± 2.8 kg/m3
348.15 K, x1 = 0.6
  viscosity: 46.63 ± 4.8 mPa·s
  mass density: 1096.1 ± 2.8 kg/m3
348.15 K, x1 = 0.8
  viscosity: 31.62 ± 3.2 mPa·s
  mass density: 1109.7 ± 2.8 kg/m3
353.15 K, x1 = 0.1
  viscosity: 115 ± 12 mPa·s
  mass density: 1059.3 ± 2.9 kg/m3
353.15 K, x1 = 0.2
  viscosity: 85.68 ± 8.8 mPa·s
  mass density: 1065.9 ± 2.9 kg/m3
353.15 K, x1 = 0.4
  viscosity: 55.46 ± 5.7 mPa·s
  mass density: 1080.5 ± 2.8 kg/m3
353.15 K, x1 = 0.5
  viscosity: 46.03 ± 4.7 mPa·s
  mass density: 1086.4 ± 2.8 kg/m3
353.15 K, x1 = 0.6
  viscosity: 38.55 ± 3.9 mPa·s
  mass density: 1093.2 ± 2.8 kg/m3
353.15 K, x1 = 0.8
  viscosity: 26.81 ± 2.7 mPa·s
  mass density: 1106.8 ± 2.8 kg/m3
358.15 K, x1 = 0.1
  viscosity: 89.62 ± 9.3 mPa·s
  mass density: 1056.6 ± 2.9 kg/m3
358.15 K, x1 = 0.2
  viscosity: 68.25 ± 7 mPa·s
  mass density: 1063.1 ± 2.9 kg/m3
358.15 K, x1 = 0.4
  viscosity: 45.37 ± 4.7 mPa·s
  mass density: 1077.6 ± 2.8 kg/m3
358.15 K, x1 = 0.5
  viscosity: 38.16 ± 3.9 mPa·s
  mass density: 1083.5 ± 2.8 kg/m3
358.15 K, x1 = 0.6
  viscosity: 32.27 ± 3.3 mPa·s
  mass density: 1090.3 ± 2.8 kg/m3
358.15 K, x1 = 0.8
  viscosity: 22.96 ± 2.3 mPa·s
  mass density: 1103.8 ± 2.8 kg/m3
363.15 K, x1 = 0.1
  viscosity: 71.03 ± 7.3 mPa·s
  mass density: 1053.8 ± 2.9 kg/m3
363.15 K, x1 = 0.2
  viscosity: 55.17 ± 5.6 mPa·s
  mass density: 1060.4 ± 2.9 kg/m3
363.15 K, x1 = 0.4
  viscosity: 37.6 ± 3.9 mPa·s
  mass density: 1074.8 ± 2.8 kg/m3
363.15 K, x1 = 0.5
  viscosity: 32.02 ± 3.3 mPa·s
  mass density: 1080.6 ± 2.8 kg/m3
363.15 K, x1 = 0.6
  viscosity: 27.32 ± 2.8 mPa·s
  mass density: 1087.4 ± 2.8 kg/m3
363.15 K, x1 = 0.8
  viscosity: 19.87 ± 2 mPa·s
  mass density: 1100.9 ± 2.8 kg/m3
